In patent US11191749B2, “Pharmaceutical compositions for combination therapy” (GENFIT, priority 2017, dated 2021):

System: TGFβ1-induced hHSC (α-SMA)
Test: α-SMA ELISA in TGFβ1-induced human primary hepatic stellate cells (single agents and combination matrix, EOB/EOHSA)
Assay type: cell-based
Conditions: 1 h preincubation, TGFβ1 1 ng/ml, 48 h, FIG. 1
Procedure: After 48 hours of incubation, the expression of α-SMA was measured by ELISA. […] Data are presented as mean (triplicates)±standard deviation (SD).
Combinations were tested in a dose-response matrix format and analyzed according to the excess over Bliss (EOB) additivism model. […] Data are presented as mean of quadruplicates. (B) EOB scores were calculated as described in Materials and Methods. […] Data are presented as mean (quadruplicates)±standard deviation (SD).
Combinations were tested in a dose-response matrix format and analyzed according to the excess over Bliss (EOB) additivism model. […] Data are presented as mean (quadruplicates)±standard deviation (SD).
Then, 2-fold and 4-fold higher and lower concentrations were selected.
The human primary hepatic stellate cells (hHSC) (Innoprot) were cultured under standard conditions, as described above.

SMILES: O=C(Nc1ncc([N+](=O)[O-])s1)c1ccccc1O [TZ, tizoxanide]
- antifibrotic activity (α-SMA) as single agent: profile similar to the parent drug
